Series [1] has as its system NF-κB (phospho-p65^Ser536). Put plainly: Western blot of phospho-p65^Ser536 in challenged neuronal cells. Type of series: cell-based, mouse. Conditions: glutamate and conditioned media challenged neuronal cells; WA. From the text:
[…] is known to modulate p53-p38MAPK dependent apoptosis in neurons, when treated with DNA damage inducing chemicals like camptothecin^34, glutamate excitotoxicity^35 or general bystander mediated killing of neurons by microglia^14. To assess the potential contribution of NF-κB to the death of TDP-43 overexpressing neurons exposed to toxic injury, we prepared cultures of primary cortical neurons and microglia from transgenic mice overexpressing TDP-43^wt or TDP-43 mutants. […] The LDH cytotoxicity was determined 24 hrs later (FIG. 14A). […] We then incubated cortical neurons with the conditioned media from primary microglial culture, which were challenged with LPS at a concentration of 50 ng/ml of media. […] As WA might exert multiple pharmacological actions, we tested a more specific molecular approach for inhibiting NF-κB. Since, activation of NF-κB requires its dissociation from the inhibitory molecule, IκB, we expressed a stable mutant super-repressive form of IκB-α (Ser 32/Ser36-to-alanine mutant; IκB^SR) and evaluated its effects on neuronal death. Cultured cortical neurons from TDP-43 transgenic and non-transgenic mice were transfected with a plasmid construct, expressing IκB^SR, and exposed to either 10 μM glutamate for 30 min or incubated in conditioned media from LPS-stimulated microglia of same genotype. […]
(In western blotting, separated proteins are transferred to a membrane and probed.)

The nature of series [2]: Detection of Withaferin A in the CSF of mice using HPLC. Type of series: in vivo, mouse. On the procedure:
FIG. 15. Detection of Withaferin A in the CSF of mice using HPLC. […] For blank samples (B), 0.9% saline was injected in non-transgenic mice. 1.5 hrs after injection, CSF samples from the mice were obtained using […] into the cistern magna. 50 μl of the sample was mixed with 60% ACN 0.1% formic acid, centrifuged and the supernatant was injected into HPLC. […] 1000 ng/ml withaferin-a chemical served as a standard (C). Withaferin retention time was 1.6 mins.

Series [3] relates to Mac-2 positive cells. Kind of series: Activated microglia (Mac-2, Cox-2) in spinal cord sections. The series is classed as in vivo, mouse. As to the method: (§1) To study the in vivo effect of NF-κB inhibition on disease progression, we injected TDP-43^wt; GFAP-luc double transgenic mice with 3 mg/kg body weight of WA twice a week for 10-weeks starting at 30-weeks. […] We used TDP-43^wt; GFAP-luc double transgenic mice because the reporter luciferase (luc) allowed the longitudinal and non-invasive biophotonic imaging with CCD camera of the GFAP promoter activity which is a target of activated NF-κB. To analyse the spatial and temporal dynamics of astrocytes activation/GFAP induction in TDP-43 mouse model, we performed series of live imaging experiments. […] The downregulation of GFAP promoter activity was further confirmed in these mice using GFAP immunofluorescence of spinal cord sections of TDP-43^Wt mice (both drug-treated and untreated) (FIG. 8F). […] Down-regulation of GFAP along with reduction in active p65 levels in withaferin treated mice prompted us to analyse behavioural changes in these mice. […] The withaferin treated mice also had 40% reduction in the number of partially denervated neuromuscular junction (NMJ) (FIGS. 8E&G).
(§2) 4% Paraformaldehyde (PFA) fixed spinal cord and brain sections of mice were sectioned and fixed on slides. For immunohistochemistry, tissues were treated with hydrogen-peroxide solution before permeabilisation. […]

Series [4] deals with peripherin. Kind of series: Peripherin immunofluorescence and immunoblot of spinal cord. Type of series: in vivo, mouse. Conditions: TDP-43^Wt mice, treated vs untreated. As to the method:
as §1
Snap frozen spinal cords of mice were harvested with lysis buffer containing 25 mM HEPES-NaOH (pH 7.9), 150 mM NaCl, 1.5 mM MgCl2, 0.2 mM EDTA, 0.5% Triton-X-100, 1 mM dithiothreitol and protease inhibitor cocktail. Protein samples were estimated using Bradford method. The lysate was incubated with 50 μl of Dynabeads (Protein-G beads, Invitrogen), anti-TDP-43 polyclonal (ProteinTech, Chicago, Ill., USA) or anti-peripherin polyclonal antibody (AB1530, Chemicon, Billerica, Mass., USA). After subsequent washing, the beads were incubated overnight at 4° C. with […] of tissue lysate. Antibody-bound complexes were eluted by boiling in Laemmli sample buffer. Supernatants were resolved by 10% SDS-PAGE and transferred on nitrocellulose membrane (Biorad, Hercules, Calif., USA). The membrane was incubated with anti-ubiquitin antibody (1:1000, Abcam, Cambridge, Mass., USA). For other western blot assays, blots were incubated with primary antibodies against human monoclonal TARDBP antibody (1:1000, Abnova, clone E2-D3), peripherin polyclonal (1:1000, Chemcion—AB1530), peripherin monoclonal (1:500, Chemicon, AB1527), Clone NR4 for NF-L (1:1000, Sigma), Clone NN18 for NF-M (1:1000, Millipore) and Clone N52 for NF-H (1:1000, Millipore). Immunoreactive proteins were then visualized by chemiluminescence (Perkin and Elmer, Santa Clara, Calif., USA) as described previously (Dequen et al., 2008). Actin (1:10000, Chemicon) is used as a loading control.
as §2

We go through one compound from patent US10060933B2, “Methods for diagnosis and treatment of amyotrophic lateral sclerosis based on an increased level of interaction between TDP-43 polypeptide and NF-KB P65 polypeptide” (UNIVERSITE LAVAL, priority 2011, dated 2018).

On to `CC1=C(CO)C(=O)O[C@@H]([C@@H](C)[C@H]2CC[C@H]3[C@@H]4C[C@H]5O[C@]56[C@@H](O)C=CC(=O)[C@]6(C)[C@H]4CC[C@]23C)C1` [Withaferin A], for which the “levels of phospho-p65^Ser536 (inhibition of NF-κB)” value in series [1] is given as “reduced levels”. Further, the “Withaferin A in CSF (HPLC)” value in series [2] (3 mg/kg intra-peritoneally, CSF 1.5 hrs after injection, 8-months old non-transgenic and TDP-43^Wt mice) is on record as “presence of Withaferin-A”. In addition, in series [2] (mice, FIG. 15), the “passage of the blood-brain barrier” value is reported as “passes the blood-brain barrier”. The “Mac-2^+ cells in L5 spinal cord” value in series [3] (TDP-43^Wt (Withaferin treated) mice, untreated 13000±500/mm^3) is listed as 6000±300 /mm^3. Moreover, the “activated microglia (Mac-2 and Cox-2 double immunofluorescence)” value in series [3] (TDP-43^Wt mice, treated vs untreated) is listed as “marked reduction in activated microglia”. Moreover, in series [4] (listed as Withaferin), the “peripherin in spinal cord (immunofluorescence, polyclonal antibody)” value is given as “reduced levels of peripherin” and the “peripherin levels in spinal cord (western blot / immunoblot, monoclonal antibody)” value is “reduced levels of peripherin”. In series [4] (listed as withaferin), the “peripherin in spinal cord (immunofluorescence, polyclonal antibody)” value is listed as “reduction of peripherin aggregates” and the “peripherin levels in spinal cord (western blot / immunoblot, monoclonal antibody)” value was “reduced”.
